The results in this text go back to patent US9580439B2, “Inhibitors of focal adhesion kinase” (The Scripps Research Institute, priority 2007, dated 2017).

This assay has as its target FAK (411-686, activated by Src and repurified) (Homo sapiens, UniProt Q05397). In words: FAK Biochemical Assay (cell-free, HTRF). The conditions noted are these: 10 μM ATP, read-out: 50% inhibitory concentrations (IC50) against focal adhesion kinase in the cell-free assay. As for the experimental part: All experiments were performed in Greiner FIA black 384-well low volume plates.
A 5 μl mixture of a 200 nM Ulight-poly GT substrate (Perkin Elmer) and 10 μM ATP in Kinase buffer (50 mM Hepes pH 7.3, 10 mM MgCl2, 1 mM EGTA, 0.01% Tween-20, 2 mM dithriothreitol) was dispensed into the wells. […] of 90% DMSO/10% water containing the compounds to be tested was added to the wells. Kinase reaction was started by addition of 5 μl of 1 nM FAK (411-686, activated by Src and repurified) in Kinase buffer. After 50 min at RT the reaction was stopped with 5 μl of 40 mM EDTA in detection buffer (Perkin Elmer, Lance detection buffer) followed by a 5 μl addition of 8 nM LANCE Ei-W1024 anti-phosphotyrosine (PY20) antibody in detection buffer. After 1 h incubation at RT the plate was read on the Viewlux in HTRF mode.
For orientation: Time-resolved FRET reads energy transfer from a long-lived donor to a nearby acceptor.

Sequence of FAK (411-686, activated by Src and repurified) (Q05397 411-686, species assumed): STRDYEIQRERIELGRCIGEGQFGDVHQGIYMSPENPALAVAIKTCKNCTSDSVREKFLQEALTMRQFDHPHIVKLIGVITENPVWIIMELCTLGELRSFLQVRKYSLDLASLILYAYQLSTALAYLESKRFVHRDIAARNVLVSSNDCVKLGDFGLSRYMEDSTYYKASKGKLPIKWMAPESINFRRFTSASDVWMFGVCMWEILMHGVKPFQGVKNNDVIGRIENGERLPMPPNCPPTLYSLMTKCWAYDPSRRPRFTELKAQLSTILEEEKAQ

Regarding `CN1Cc2cccc(Nc3cc(Nc4cccc5c4C(=O)N(C)C5)c(C(F)(F)F)cn3)c2C1=O` [Compound 3, 7,7′-(5-(trifluoromethyl)pyridine-2,4-diyl)bis(azanediyl)bis(2-methylisoindolin-1-one)], the IC50 was > 10 µM.
The value for `CNS(=O)(=O)c1ccccc1Nc1cc(Nc2ccccc2S(=O)(=O)NC)c(C(F)(F)F)cn1` [Compound 5] was > 10 µM.
